Data on three compounds can be found in US20180042918A1, “RESPIRATORY INFECTION TREATING AGENT” (KYORIN PHARMACEUTICAL CO., LTD., priority 2015, published 2018).

The test system of data set [1] is S. pneumoniae IID553. The experiment in a line: microbe, parasite or virus in culture. The data set is classed as cell-based. To be noted: Streptococcus pneumoniae.
Data set [2] has as its system S. pneumoniae NF9884. Kind of data set: microbe, parasite or virus in culture. The data set is classed as cell-based. To be noted: Streptococcus pneumoniae.
Data set [3] relates to S. pneumoniae CF9842. Kind of data set: microbe, parasite or virus in culture. The data set is classed as cell-based. To be noted: Streptococcus pneumoniae.
Data set [4] concerns S. pneumoniae SF9863. Kind of data set: microbe, parasite or virus in culture. The data set is classed as cell-based. To be noted: Streptococcus pneumoniae.
Data set [5] deals with S. pneumoniae GF9821. The experiment in a line: microbe, parasite or virus in culture. To be noted: Streptococcus pneumoniae. The data set is classed as cell-based.
Data set [6] concerns S. pneumoniae ST9941. Kind of data set: microbe, parasite or virus in culture. To be noted: Streptococcus pneumoniae. The data set is classed as cell-based.
Data set [7] relates to S. pneumoniae SN9981. The experiment in a line: microbe, parasite or virus in culture. To be noted: Streptococcus pneumoniae. The data set is classed as cell-based.
The test system of data set [8] is S. pneumoniae KY-9. Kind of data set: Antibacterial activity against Streptococcus pneumoniae in vitro, CLSI microdilution. In kind it is cell-based. To be noted: KY9. The procedure: The antibacterial activities in vitro of the compound D, garenoxacin, and levofloxacin against a strain in a mouse infected with Streptococcus pneumoniae (S. pneumonia KY-9) were measured in accordance with a CLSI microdilution method.
(Dilution methods test growth across graded concentrations, often in twofold steps.)

In data set [9] the test system is H. influenzaes (26 STRAINS). The experiment in a line: Antibacterial activity against clinically isolated strains, MIC90. In kind it is cell-based. To be noted: Haemophilus influenzae, 26 clinically isolated strains. The procedure:
(§1) The antibacterial activities in vitro of the compound D, garenoxacin, and levofloxacin against each clinically isolated strain of Streptococcus pneumoniae, Moraxella catarrhalis, and Haemophilus influenzae were measured in accordance with a CLSI microdilution method or a CLSI agar dilution method. A MIC90 value was the minimum concentration in which the growth of 90% strain of all the measured strains was inhibited.

Data set [10] relates to M. catarrhalis (26 STRAINS). Described as above. The data set is classed as cell-based. To be noted: Moraxella catarrhalis, 26 clinically isolated strains. The procedure: as §1
For data set [11], the system named is PCG-LOW SENSITIVE S. pneumoniae (22 STRAINS). The data set is described as above. To be noted: Streptococcus pneumoniae, 22 clinically isolated strains. In kind it is cell-based. The procedure:
as §1

Data set [12] has as its system PSSP (26 STRAINS). Described as above. The data set is classed as cell-based. To be noted: Streptococcus pneumoniae, 26 clinically isolated strains. The procedure: as §1
In data set [13] the test system is S. aureus ATCC29213. Kind of data set: MIC of strain used for resistance frequency test. To be noted: Staphylococcus aureus, ATCC29213. The data set is classed as cell-based.
For data set [14], the system named is E. coli ATCC25922. Kind of data set: microbe, parasite or virus in culture. In kind it is cell-based. To be noted: Escherichia coli.
Data set [15] concerns S. pneumoniae ATCC49619. The experiment in a line: microbe, parasite or virus in culture. In kind it is cell-based. To be noted: Streptococcus pneumoniae.
Data set [16] relates to S. aureus ATCC29213. The experiment in a line: Frequency of development of resistant bacteria. The data set is classed as cell-based, Staphylococcus aureus. To be noted: about 70 hours. The procedure: (§2) S. aureus ATCC29213 is Staphylococcus aureus, S. pneumoniae ATCC49619 is Streptococcus pneumoniae, and E. coli ATCC25922 is Escherichia coli. […]
(§3) The frequency of development of resistant bacteria was calculated by dividing the number of colonies developed on an agar medium having each drug concentration by the number of initially inoculated bacteria.

Data set [17] relates to E. coli ATCC25922. The experiment in a line: Frequency of development of resistant bacteria. In kind it is cell-based, Escherichia coli. To be noted: about 70 hours. The procedure: as §2, §3
Data set [18] deals with S. pneumoniae ATCC49619. Kind of data set: Frequency of development of resistant bacteria. In kind it is cell-based, Streptococcus pneumoniae. To be noted: about 70 hours. The procedure: as §2, §3
The target in data set [19] is DNA gyrase derived from S. aureus (Staphylococcus aureus, UniProt P0A0K8+P20831). The experiment in a line: Enzyme inhibitory activity, supercoiling of relaxed pBR322. To be noted: S. aureus enzyme; average of three or average ± SD; read-out: IC50 VALUE, DNA gyrase (converted). The data set is classed as biochemical. The procedure:
(§4) Agents Chemother. 45: 3544-3547 (2001). […] The measurement was performed in the same manner as in Test Example 3. Similarly, the inhibitory activities of ciproxacin, levofloxacin, and garenoxacin were measured. The results were compared.

In data set [20] the target is QUINOLONE RESISTANT DNA gyrase (quinolone-resistant S. aureus) (Staphylococcus aureus, UniProt P20831). The data set is described as above. The data set is classed as biochemical. To be noted: average of three or average ± SD, read-out: IC50 VALUE, QUINOLONE RESISTANT DNA gyrase (converted). The procedure:
as §4

For data set [21], the target named is QUINOLONE RESISTANT Topoisomerase IV (S. aureus) (Staphylococcus aureus, UniProt P0C1U9). Kind of data set: Enzyme inhibitory activity, decatenation of kinetoplast DNA. To be noted: read-out: IC50 VALUE, QUINOLONE RESISTANT Topoisomerase IV (converted). The data set is classed as biochemical. The procedure:
as §4

For data set [22], the target named is Topoisomerase IV (S. aureus) (Staphylococcus aureus, UniProt P0C1S7+P0C1U9). Described as above. To be noted: S. aureus enzyme; read-out: IC50 VALUE, Topoisomerase IV (converted). In kind it is biochemical. The procedure:
as §4

Data set [23] relates to S. aureus MS5935. The experiment in a line: Antibacterial activity against quinolone-resistant strain in vitro, CLSI dilution. The data set is classed as cell-based. To be noted: Staphylococcus aureus; S. aureus MS5935, PARENT STRAIN, gyrA None, grlA None.
In data set [24] the test system is S. aureus MS5935 gyrA mutant. The experiment in a line: microbe, parasite or virus in culture. In kind it is cell-based. To be noted: Staphylococcus aureus.
The subject of data set [25] is S. aureus MS5935 1st. Kind of data set: microbe, parasite or virus in culture. To be noted: Staphylococcus aureus, MS59351ST. In kind it is cell-based.
Data set [26] concerns S. aureus MS5935 2nd. The experiment in a line: microbe, parasite or virus in culture. In kind it is cell-based. To be noted: Staphylococcus aureus, MS59352ND.
The subject of data set [27] is S. aureus MS5935 3rd. Kind of data set: microbe, parasite or virus in culture. The data set is classed as cell-based. To be noted: Staphylococcus aureus, MS59353RD.
For data set [28], the system named is S. aureus MS5935 4th. Kind of data set: microbe, parasite or virus in culture. The data set is classed as cell-based. To be noted: Staphylococcus aureus, MS59354TH.
The conditions of data set [29]: consecutive administration, daily dose of 500 mg; cited from earlier work.
Data set [30] concerns the target DNA gyrase derived from S. pneumoniae IID553 (Streptococcus pneumoniae serotype 4, UniProt P0A4L9+P72524). The experiment in a line: Enzyme inhibitory activity, supercoiling of relaxed pBR322.
Data set [31] deals with Topoisomerase IV (S. pneumoniae IID553) (Streptococcus pneumoniae serotype 4, UniProt P72525+Q59961). The experiment in a line: Enzyme inhibitory activity, decatenation of kinetoplast DNA.
For data set [32] the following is noted: cited from earlier work.

In brackets after ≈: the same amount, converted by molar mass. Where two headings read alike, the source gives them in different places. Marks after values point to notes of the source that are not given here.

Take `C[C@H]1COc2c(N3CCN(C)CC3)c(F)cc3c(=O)c(C(=O)O)cn1c23` [LVFX, levofloxacin]: the MIC in data set [1] was determined as 1 mg/L (≈ 2.77 µM); in data set [2], 2 mg/L (≈ 5.53 µM); in [3], 2 mg/L (≈ 5.53 µM); in data set [4] it was 2 mg/L (≈ 5.53 µM); in data set [5] it was 2 mg/L (≈ 5.53 µM); in data set [6], 16 mg/L (≈ 44.3 µM). Also, the MIC came to 16 mg/L (≈ 44.3 µM) in [7]; 1 mg/L (≈ 2.77 µM) in data set [8]; 0.125 mg/L in [13]; 0.015 mg/L (≈ 0.0415 µM) in data set [14]; 1 mg/L (≈ 2.77 µM) in data set [15]; 0.125 mg/L (≈ 0.346 µM) in [23]. For the same compound, the MIC in data set [24] was 0.25 mg/L (≈ 0.692 µM); in [25], 0.5 mg/L (≈ 1.38 µM); in data set [26] it was 8 mg/L (≈ 22.1 µM); in data set [27] it was 32 mg/L (≈ 88.6 µM); in [28] it was 128 mg/L (≈ 354 µM). Besides, the MIC90 in data set [9] worked out at 0.03 mg/L (≈ 0.083 µM); in data set [10], 0.03 mg/L (≈ 0.083 µM); in data set [11] it was 1 mg/L (≈ 2.77 µM); in [12], 1 mg/L (≈ 2.77 µM). Besides, the “FREQUENCY OF DEVELOPMENT OF RESISTANT BACTERIA (AVERAGE OF TWO MEASURED VALUES)” value in data set [16] (S. aureus ATCC29213, 4 × MIC) is reported as <2.1 × 10^−9; in data set [16] (S. aureus ATCC29213, 8 × MIC) it was <2.1 × 10^−9; in [16] (S. aureus ATCC29213, 16 × MIC), <2.1 × 10^−9; in data set [17] (E. coli ATCC25922, 4 × MIC), 3.9 × 10^−9*; in [17] (E. coli ATCC25922, 8 × MIC), <1.9 × 10^−9; in data set [17] (E. coli ATCC25922, 16 × MIC) it was <1.9 × 10^−9. Moreover, the “FREQUENCY OF DEVELOPMENT OF RESISTANT BACTERIA (AVERAGE OF TWO MEASURED VALUES)” value is <1.1 × 10^−8 in data set [18] (S. pneumoniae ATCC49619, 4 × MIC); <1.1 × 10^−8 in data set [18] (S. pneumoniae ATCC49619, 8 × MIC); <1.1 × 10^−8 in [18] (S. pneumoniae ATCC49619, 16 × MIC). In addition, the IC50 is 44.3 µM in data set [19]; 3600 µM in data set [20]; 238 µM in data set [21]; 7.75 µM in data set [22]; 443 µM in data set [30]; 30.4 µM in data set [31]. Besides, the AUC in [29] is 49.67 µg·h/mL. For the same compound, the maximum concentration (Cmax) in data set [29] was 6.32 µg/mL.

Consider `CC1COc2c(N3CCN(C)CC3)c(F)cc3c(=O)c(C(=O)O)cn1c23` (stereo not shown) [ofloxacin], for which the “tissue distribution ratio into the lung tissue” value in data set [32] (rat, 1.0 hour after oral administration) was 2.7.

For the compound `N[C@@H]1CN(c2c(F)cc3c(=O)c(C(=O)O)cn([C@@H]4C[C@@H]4F)c3c2Cl)CC12CC2` [sitafloxacin], the “tissue distribution ratio into the lung tissue” value in data set [32] (male rat, 0.5 hours after single oral administration) is reported as 2.7.

A word on the IC50: it is the concentration needed to halve the response being measured. In general, AUC refers to concentration integrated over time. As usually defined, the Cmax is the peak of the concentration-time curve.
